# Experimental data reported in patent publication US7087430B2, “Human VNO cDNA libraries” (Pherin Pharmaceuticals, Inc., priority 2000, dated 2006).
# Tests used:
# female human VNO cell = assay: Electrophysiological membrane currents in cultured human VNO cells; type: cell-based
# From the text: FIG. 1 is an electrophysiological trace showing the effects of pertussis toxin on membrane currents induced by a vomeropherin.
# FIG. 1C indicates when the cells were exposed to ADO (i.e., ADO pulses).
# PTX uncouples receptors from their heterotrimeric G proteins and thereby blocks signal transduction. Sensitivity to PTX is an accepted marker for pathways involving G protein-coupled receptors that decrease intracellular CAMP, regulate ion channels or activate phospholipases (i.e., couple to Gi or G0). (For a review, see Simon et al., (1991) Science 252:802–808.) We have also implicated a specific type of ion channel in the response of human VNO cells to vomeropherins. […] However, as noted above, cultured VNO cells are of limited value as a screening tool due to the need to continually isolate new cells. Thus, construction of a cDNA library was desired in order to clone and express pheromone receptors in a cell line.
# As noted above, […] data (FIG. 1) indicate that cells isolated from the VNO of human volunteers respond electrophysiologically to a vomeropherin via a PTX-sensitive pathway, a hallmark of G protein-coupled receptor signaling. Thus, we anticipated that components of the pathway such as G proteins (e.g., Gi and G0), adenylyl cyclase (e.g., type 3 and 7), and various ion channels are expressed in these cells. We assayed for expression of these proteins in the VNO by screening our library for cDNA clones of the corresponding mRNAs. Knowledge of the signaling components expressed in VNO neurons is essential to express the receptors functionally in tissue culture cells for high throughput drug screening assays.
# human VNO = conditions: cited from earlier work
# human brain = conditions: human volunteers, delivered non-specifically to the nasal cavity, no detectable odor (Sobel et al. 1999); cited from earlier work
compound,measurement,setting,value
pertussis toxin,effect on ADO-induced inward currents,"female human VNO cell; cell incubated with 100 ng/ml PTX, FIG. 1B",blocking the inward currents
same,effect on electrophysiological response to a vomeropherin,"female human VNO cell; cultured human VNO neuroepithelial cells, FIG. 1",blocks the electrophysiological response to a vomeropherin
"CC(=O)Oc1ccc2c(c1)CC[C@@H]1[C@@H]2CC[C@]2(C)C=CC[C@@H]12 [estra-1,3,5(10),16-tetraen-3yl acetate]",physiological responses in vivo by site of application,"human VNO; human subjects, VNO versus olfactory or respiratory epithelium (Monti-Bloch et al. 1994)",induces physiological responses in vivo only when applied specifically to the VNO
same,brain activation by fMRI,human brain,"dose-dependent activation of the anterior medial thalamus, the inferior frontal gyrus, and other regions of the human brain"
"C[C@@]12C=CC[C@H]1[C@@H]1CCC3=CC(=O)CC[C@]3(C)[C@H]1CC2 [androstadienone, androsta-4,16-dien-3-one]",physiological responses on administration to the human VNO,human VNO,"induce bradycardia, bradypnea, increases in core body temperature, and other physiological responses"
same,inward membrane currents induced by vomeropherin,"female human VNO cell; 10^−7M, human VNO cell, FIG. 1A",inward currents induced
"C[C@@]12C=CC[C@H]1[C@@H]1CCc3cc(O)ccc3[C@H]1CC2 [estra-1,3,5(10),16-tetraen-3-ol]",physiological responses on administration to the human VNO,human VNO,"induce bradycardia, bradypnea, increases in core body temperature, and other physiological responses"
